Measured values published in article PMC10287183 (Antiviral Research, 2023).
Where two headings read alike, the source gives them in different places.

Tests used:
[1] = test system: SARS-CoV-2 D614G; assay type: cell-based
[2] = in vitro; settings: human
[3] = test system: SARS-CoV2 D614G; assay type: cell-based, SARS-CoV-2; settings: for EC90: read-out: EC90 (mean ± SD)
[4] = test system: Huh7-hACE2

## O=[N+]([O-])c1ccc(O)c2ncccc12 [Nitroxoline, nitroxoline]
[1]
  virus entry step: inhibited this step similarly to HCQ
[2]
  CC50: > 100 µM
[3]
  EC90: 9.9 ± 8 µM

## CLIK-148 [CLIK 148]
[3]; […], highest concentration tested 100 μM (CLIK-148 60 μM)
  Highest % of Virus Inhibition: 64%
[4]
  CC50: > 100 µM

## CCN(CCO)CCCC(C)Nc1ccnc2cc(Cl)ccc12 (centres unmarked) [Hydroxychloroquin, Hydroxychloroquine]
[2]
  CC50: > 100 µM
[3]
  Highest % of Virus Inhibition: 98%
  EC90: 18.9 ± 2.3 µM
